Data on four compounds can be found in ChEMBL document CHEMBL1130146, “Fused pyrrolo[2,3-c]carbazol-6-ones: novel immunostimulants that enhance human interferon-gamma activity” (J Med Chem, 1997).

For test [1], the system named is THP-1. Briefly: Compound (0 uM) was screened for potentiation of IFN-gamma (100 units/mL)-induced expression of HLA-DR in THP-1 cells. The format is functional, Homo sapiens.
The next test addresses Protein kinase C (PKC). Briefly: Inhibition of protein kinase C. The test is classed as protein assay, Rattus norvegicus.
Test [2] deals with THP-1. Briefly: Compound (0 uM) was screened for potentiation of IFN-gamma (0 units/mL)-induced expression of HLA-DR in THP-1 cells. The test is classed as functional, Homo sapiens.
In test [3] the test system is THP-1. Briefly: Compound (2 uM) was screened for potentiation of IFN-gamma (0 units/mL)-induced expression of HLA-DR in THP-1 cells. The format is functional, Homo sapiens.
The test system of test [4] is THP-1. Briefly: Compound (2 uM) was screened for potentiation of IFN-gamma (100 units/mL)-induced expression of HLA-DR in THP-1 cells. The test is classed as functional, Homo sapiens.

SMILES strings stand for the structures.

Turning to `O=C1Cc2c(c3c4ccccc4oc3c3[nH]c4ccccc4c23)N1`, the Enhancement with THP-1 [1] is listed as 100%; with THP-1 [2] it was 0%; in the test on THP-1 [3] it was 0%; in the test with THP-1 [4], 108%. The IC50 on Protein kinase C (PKC) was > 10 µM.

On to `O=C1Cc2c(c3c(c4[nH]c5ccccc5c24)Cc2ccccc2-3)N1`, for which the Enhancement was found to be 100% with THP-1 [1], 0% with THP-1 [2], 0% in the test on THP-1 [3] and 160% with THP-1 [4]. Besides, the IC50 on Protein kinase C (PKC) was > 10 µM.

Regarding `O=C1Cc2c(c3c4ccccc4[nH]c3c3[nH]c4ccccc4c23)N1`, the Enhancement in the test on THP-1 [1] is 100%; in the test with THP-1 [2] it was 0%; in the test with THP-1 [3] it was 0%; in the test with THP-1 [4], 130%. Moreover, on Protein kinase C (PKC), the IC50 was > 10 µM.

Take `O=C1Cc2c(c3c4ccccc4sc3c3[nH]c4ccccc4c23)N1`: the Enhancement in the test on THP-1 [1] was determined as 100%; in the test with THP-1 [2] it was 0%; with THP-1 [3], 0%; with THP-1 [4], 153%. Moreover, the IC50 at Protein kinase C (PKC) was > 10 µM.

Broadly, the IC50 is the concentration that gives 50% inhibition.
